US20250108023A1, “Products for Masking Bitterness” (The Third People's Hospital of Henan Province, priority 2023, published 2025)

Tests used:
[1] = Oral spray bitterness masking taste test by volunteers with Coptis chinensis standard bitter solution; assay type: in vivo, healthy volunteers; parameters: key to bitterness value after drug: bitterness value 0.5–5.5; 1 = none, 5 = unbearable; key to Reduction of bitterness: drop in bitterness value (0.5–5.5 scale) from initial; settings: for bitterness value after drug: initial bitterness 4.0, 16 cases
Procedure: Purpose of the experiment: it is to screen out compounds that take effect within 5 seconds, last for 30-120 seconds, and it is expected, by using such kind of compounds, the taste of the drug cannot be felt during the duration (30-120 seconds) when taking the drug.
Principle of the experiment: simulate the process of taking medicine and using the taste masking agents, first spray about 0.5 ml of oral spray on the throat (3 times), and after it takes effect quickly, taste 10 ml of bitter standard solution to screen drugs that can be used in advance and can mask the bitter taste.
• 1: Volunteer screening. The research team strictly screened the recruited volunteers and finally selected healthy volunteers as subjects. They signed informed consent forms before the experiment; • 2: Standard bitterness sample preparation. The bitterness of the samples was divided into five levels, and each level was assigned a certain bitterness value range; • 3: The sensory standard was corrected by the oral taste evaluation method, that is, the sensory standard was corrected by comparing the taste evaluation of the volunteers with the established bitterness value of the reference sample group. Specific steps: when the volunteers are doing the oral tasting test, the reference solutions of various concentrations are placed in the tasting cups, and the volunteers hold one of the solutions in their mouths, time it, and rinse their mouths by using the solution so that the bitter taste perception area at the root and sides of the tongue can fully feel the bitter taste of the drug. […] Then dilute all the selected taste masking drugs, prepare the solution, take 10 ml and put it into the spray bottle, spray it into the mouth 3 times, stay for 5 seconds, drink 10 ml of standard bitterness solution, feel and record the bitterness value, keep the standard bitterness solution in the mouth until the bitterness rises, and record the retention time. • 5: Quality control. […] Since the experimental objects are biological samples and there are individual differences between different subjects, there may be individual outliers in the experimental test data. The Grubbs test method was used to exclude outliers in the data, and then the experimental data were plotted in tables and curves for data analysis.
It is necessary to process the experimental data. Specifically, the Grubbs test method was used to perform a circular test and elimination of outliers on the data, and a bilateral test was used to eliminate outliers in the oral test. Considering the characteristics of biological samples, the detection level was selected as 0.1 and the elimination level was selected as 0.05 in this experiment.
The experimental medicinal material processing method mentioned in the above technical scheme is as follows: Preparation of bitter standard solution, use 10 g of Coptis chinensis powder, add 100 ml of pure water above 90 degrees, stir, let stand for 20 minutes, take the supernatant for use, determine the standard bitterness of 4.0 degrees by oral tasting, dilute 5 times, determine the standard bitterness of 2.0 degrees, dilute 2.0 degrees again 5 times, determine the standard bitterness of 0.5 degrees. Compare with the bitterness scoring table, (level 1 means “no bitterness or almost no bitterness”, the bitterness value is 0.5˜1.5; level 2 means “slightly bitter”, the bitterness value is 1.5˜2.5; level 3 means “bitter but acceptable”, the bitterness value is 2.5˜3.5; level 4 means “very bitter, but still tolerable”, the bitterness value is 3.5˜4.5; level 5 means “unbearable bitterness”, the bitterness value is 4.5˜5.5). Adjust the judgment and cognition of bitterness.
The standard bitterness solution used in this experiment to verify the experimental effect is a 4.0 degree bitterness solution of Coptis chinensis prepared according to the above method.

[2] = target: T1, sodium ion channel of Trpm5 bitter receptor (Mus musculus, UniProt Q9JJH7); test: Immunofluorescence experiment of sodium ion channels in mouse tongue cells stimulated with bitter agent; assay type: cell-based, mice; settings: for blocking effect on the sodium ion channel (result analysis in words): judged from change of sodium ion fluorescence after bitter drug
T1 construct: Put the removed tongue in a 2 ml EP tube, add 1-1.5 ml of 0.25% trypsin solution; from tissue; host or cells: cells dissociated with trypsin from mouse tongue
T1 sequence (Q9JJH7 1-1158): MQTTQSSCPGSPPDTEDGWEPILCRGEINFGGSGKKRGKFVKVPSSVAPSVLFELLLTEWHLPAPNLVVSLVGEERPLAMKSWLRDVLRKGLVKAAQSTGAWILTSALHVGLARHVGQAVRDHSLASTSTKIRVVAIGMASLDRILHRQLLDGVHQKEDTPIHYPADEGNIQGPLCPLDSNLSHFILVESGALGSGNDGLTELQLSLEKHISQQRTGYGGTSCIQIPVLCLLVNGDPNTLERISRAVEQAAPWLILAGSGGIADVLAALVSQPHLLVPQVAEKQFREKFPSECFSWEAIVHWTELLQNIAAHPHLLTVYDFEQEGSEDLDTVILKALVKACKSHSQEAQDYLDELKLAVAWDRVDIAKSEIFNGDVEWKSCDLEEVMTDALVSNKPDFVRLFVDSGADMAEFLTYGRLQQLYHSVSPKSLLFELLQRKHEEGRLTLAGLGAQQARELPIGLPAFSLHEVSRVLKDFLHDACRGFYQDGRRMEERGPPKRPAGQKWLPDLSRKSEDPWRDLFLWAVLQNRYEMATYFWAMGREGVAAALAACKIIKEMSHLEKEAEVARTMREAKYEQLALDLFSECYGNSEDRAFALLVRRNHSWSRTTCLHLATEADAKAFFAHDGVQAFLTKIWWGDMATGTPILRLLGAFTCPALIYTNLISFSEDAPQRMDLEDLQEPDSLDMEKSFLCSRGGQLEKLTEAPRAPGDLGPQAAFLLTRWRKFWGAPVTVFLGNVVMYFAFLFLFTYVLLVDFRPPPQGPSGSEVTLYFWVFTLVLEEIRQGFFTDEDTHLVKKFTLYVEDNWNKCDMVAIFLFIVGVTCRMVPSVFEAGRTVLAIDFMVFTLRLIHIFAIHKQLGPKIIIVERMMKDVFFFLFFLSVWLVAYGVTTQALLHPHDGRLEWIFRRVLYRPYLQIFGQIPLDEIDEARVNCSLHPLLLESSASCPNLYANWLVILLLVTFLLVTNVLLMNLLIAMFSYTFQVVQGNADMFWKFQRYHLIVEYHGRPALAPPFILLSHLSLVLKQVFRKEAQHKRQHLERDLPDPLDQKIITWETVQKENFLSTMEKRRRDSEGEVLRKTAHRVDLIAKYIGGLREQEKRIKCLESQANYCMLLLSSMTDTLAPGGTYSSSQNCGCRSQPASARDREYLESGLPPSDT
Procedure: The mouse was killed by dislocation, and the tongue was removed (minimizing tongue bleeding), disinfected with alcohol for 2 minutes (adding sodium citrate for anticoagulation), and washed with D-Hanks solution or rinsed with 10 ml of saline solution drawn by a syringe.
Take out the centrifuge tube from the constant temperature incubator, shake for 2 minutes, blow the undigested tongue several times with the gun tip, take out the tongue, cover it with the EP tube cap, put it in a centrifuge, centrifuge at 3000 rpm for 3 minutes, discard the supernatant, add cell culture medium (containing 10% inactivated serum), blow and disperse the cells, and place it in a 37° C. constant temperature incubator for 30 min to allow the cells to recover.
(1) Take out the prepared ENG-2 AM storage solution and warm it to room temperature for use, keeping it away from light. The concentration of the pre-prepared stock solution is 2 mM and it is stored at −18° C. for future use.
(2) Dilute the ENG-2 AM+DMSO stock solution to a […] working solution using serum-free culture medium.
(3) Load the probe in a serum-free culture medium containing an appropriate concentration of AM probe.
Take out the cells from the incubator, centrifuge, and discard the culture medium. Wash the cells once with D-Hanks solution, centrifuge, and discard the culture medium. Add 1 ml of culture medium again, then add 300 ul of sodium ion probe dilution solution, blow and disperse the cells, and incubate the cells at room temperature or 37° C. for 1 hour.
At the end of incubation, centrifuge at 100 rpm for 2 minutes, discard the supernatant, add 500 ul of cell culture medium without AM probe, blow and disperse the cells, and incubate for 20-60 min to ensure that the cells completely deesterify the AM group.
(4) Take 10 ul of incubation solution and drop it into the center of the cell counting plate, cover it with a slide, and observe it under a fluorescence microscope.
(5) Use a low-power microscope to find the cells, open the fluorescence path, detect the fluorescence signal with a fluorescence microscope, change to a high-power microscope, find the appropriate observation cells, observe and take pictures to record the initial signal.
(2) Experimental drugs: Add 5 ul of the tested drug to one side of the cover glass on the cell counting plate, use absorbent paper to absorb water on the opposite side, let the solution soak the cells, and then use a fluorescence microscope to observe and take 3-5 photos, one every 1-2 minutes; then add 5 ul of the standard bitter drug to one side of the cover glass on the cell counting plate, use absorbent paper to absorb water on the opposite side, let the solution soak the cells, and then use a fluorescence microscope to observe and take 3-5 photos, one every 1-2 minutes.
(5) Data analysis: Use Image J-Fiji software to analyze the images, compare the average values of the fluorescence pixels, remove the base number and compare them in the table, draw FIGS. 4-6, and use SPSS18.0 to perform chi-square tests to compare the differences between the data groups.

[3] = Bitterant 60 s (2% metronidazole solution)
[4] = Bitterant 120 s (2% metronidazole solution)
[5] = Bitterant 180 s (2% metronidazole solution)
[6] = Initial (before addition of drug), sodium ion dye ENG-2 AM
[7] = Bitterant 240 s (2% metronidazole solution)

| Compound | average value of fluorescence brightness ([2]; Addition of drugs) | average value of fluorescence brightness, base number removed ([2]; Addition of drugs) | average value of fluorescence brightness [2, 3] | average value of fluorescence brightness, base number removed [2, 3] | average value of fluorescence brightness [2, 4] | average value of fluorescence brightness, base number removed [2, 4] | average value of fluorescence brightness [2, 5] | average value of fluorescence brightness, base number removed [2, 5] | average value of fluorescence brightness, base number removed ([2]; Initial) | average value of fluorescence brightness [2, 6] | blocking effect on the sodium ion channel (result analysis in words) [2] | other results |
| --- | --- | --- | --- | --- | --- | --- | --- | --- | --- | --- | --- | --- |
| CNC(=O)C(C)(C(C)C)C(C)C [Cooling agent WS-23, N,2,3-trimethyl-2-isopropylbutyramide] | – | – | – | – | – | – | – | – | – | – | – | Duration > ([1]; 0.2% solution in 60% ethanol as oral spray, retention time until bitterness rises): > 30 s; inhibition in vivo at 0.2 % ([1]; Homo sapiens, 0.2% solution in 60% ethanol as oral spray, relative to original bitterness 4.0, read-out: Reduction range): 50%; bitterness value after drug ([1]; concentration 0.001% in 60% ethanol): 2.5; bitterness value after drug ([1]; concentration 0.005% in 60% ethanol): 2.4; bitterness value after drug ([1]; concentration 0.02% in 60% ethanol): 2.1; bitterness value after drug ([1]; concentration 0.10% in 60% ethanol): 2; bitterness value after drug ([1]; concentration 0.50% in 60% ethanol): 2.1 |
| COc1cc(C=O)cc(O)c1O [Hydroxyvanillin] | – | – | – | – | – | – | – | – | – | – | – | Reduction of bitterness ([1]; 0.2% solution in 60% ethanol as oral spray, original bitterness average 4.0, average of 31 cases): 0; Reduction range ([1]; 0.2% solution in 60% ethanol as oral spray, relative to original bitterness 4.0): 0.00% |
| NCCCC(=O)O [GABA, 4-aminobutyric acid] | 27.367 | 0.082 | 27.287 | 0.002 | 27.21 | −0.075 | 27.127 | −0.158 | 0 | 27.285 | have poor effects and do not have bitterness masking effect | – |
| CC1CCC(C(C)C)C(OC(=O)C(C)O)C1 (stereo not shown) [Menthyl lactate, 2-hydroxypropionic acid-5-methyl-2-(1-methylethyl)cyclohexyl ester] | 28.425 | −0.113 | 28.141 | −0.397 | 27.831 | −0.707 | 28.191 | −0.347 | 0 | 28.538 | can block the sodium ion channel of Trpm5 bitter receptor | – |
| CC1CCC(C(C)C)C(O)C1 (stereo not shown) [Menthol, 2-isopropyl-5-methylcyclohexanol] | 22.118 | −0.435 | 22.04 | −0.513 | 21.924 | −0.629 | 21.907 | −0.646 | 0 | 22.553 | can block the sodium ion channel of Trpm5 bitter receptor | average value of fluorescence brightness [2, 7]: 20.562; average value of fluorescence brightness, base number removed [2, 7]: −1.991 |
| Hydroxyvanillic acid | 28.082 | 0.093 | 27.496 | −0.493 | 27.697 | −0.292 | 27.919 | −0.07 | 0 | 27.989 | have poor effects and do not have bitterness masking effect | – |
